According to patent publication US20090053290A1, “TRANSDERMAL DRUG DELIVERY COMPOSITIONS AND TOPICAL COMPOSITIONS FOR APPLICATION ON THE SKIN” (priority 2006, published 2009):

Key:
[1] = in vivo; cited from earlier work
onychomycosis = conditions: nail lacquer, topical; cited from earlier work
bovine tendon = assay: Melting temperature measurement of fixed tissue (cross-linking), tendon; conditions: 48 hours; PA 0.5% in PBS, GA 0.625% in PBS; n = 3; in °C
Protocol: (§1) The fixed tissues and fresh tissues were assayed for their melting temperature by heating tissue strips (1×2 cm^2, n=3). The melting temperature was recorded when tissues started to shrink.

bovine pericardium = assay: Melting temperature measurement of fixed tissue (cross-linking), pericardium; conditions: 48 hours; PA 0.5% in PBS, GA 0.625% in PBS; n = 3; in °C
Protocol: as §1

collagenase = format: biochemical
Protocol: Tissue integrity was checked at the end of the incubation using a standard histological method (hematoxylin-eosin (H&E)). […] At predetermined intervals, 1.0 mL of solution was taken out and filtered through a 0.45-μM cellulose filter to separate solubilized collagen from insolubilized matrix. The amount of solubilized collagen was determined after total acid hydrolysis in 6N HCl for 24 hours at 100° C. by measuring hydroxyproline. The results are expressed as a percentage of the total collagen solubilized.

human skin fibroblasts = assay: Cell proliferation and collagen synthesis of fibroblasts cultured on treated pericardium; format: cell-based; conditions: p<0.005 for treated pericardium, FIG. 9
Protocol: Discs, 15 mm in diameter, were punched out from PA-treated bovine pericardium and inserted into the bottom of 24-well plates. After washing and equilibrating with PBS, human skin fibroblasts (8×10^4/well, third passage kindly provided by Dr. Warren Garner, University of Southern California) were placed on top of the tissues. After 48 hours of culture in 10% FBS/DMEM, the medium was changed to a labeling medium ([^3H]thymidine, 10 μCi/mL, 0.5% FBS/DMEM) followed by a 24 hour labeling period. Cell proliferation was assayed and collagen synthesis recorded as [^3H]OH-proline incorporation in a culture medium containing 25 μg/mL ascorbic acid, 25 μg/mL β-APN and 25 μCi/mL [^3H]proline in 0.5% FBS/DMEM after labeling for 48 hours.

Fischer 344 rats = tested on: Fischer 344 rats
Source text: Three-week-old Fischer 344 rats were obtained from Harlan Sprague Dawley, Inc. (Indianapolis, Ind.). NIH and University of Southern California IACUC guidelines for the care and use of laboratory animals were observed. […] The samples were retrieved after 3 and 6 weeks post-operation, and samples were processed for H&E and von Kossa staining, the latter to determine the extent of calcification.

NIH 3T3 cells = conditions: mouse, 72 h
Protocol: NIH 3T3 cells were used in these studies. Cells were cultured in 24-well plates at a density of 5×10^6 cells/well in 10% FBS/DMEM overnight. […] Cells were incubated for 72 hours before cell counting and morphological studies.

[2] = in vivo; cited from earlier work; remark: listed apart in the source

CC(=O)Oc1ccccc1C(=O)O [Aspirin, aspirin]
period of inhibition of blood clotting [1]: 4 to 7 days

Cc1cc(C2CCCCC2)n(O)c(=O)c1 [Ciclopirox]
cure rate (onychomycosis): < 10%

O=CCCCC=O [GA, glutaraldehyde]
Melting temperature, tendon (bovine tendon): 84 ± 1.0 | Melting temperature, pericardium (bovine pericardium): 94 ± 1.5 | collagen fibril structure after 24 hours of collagenase digestion (H&E) (collagenase): remained intact | collagen synthesis / deposition (hydroxyproline incorporation) (human skin fibroblasts): inhibit collagen synthesis | degradation of fixed tissue after subcutaneous implantation (summary) (Fischer 344 rats; periods ranging from 3 and 6 weeks): no apparent degradation | calcification of implant (Von Kossa staining) (Fischer 344 rats; rat, in vivo, sc): dystrophic calcification | implant degradation, six weeks postoperatively (Fischer 344 rats; subcutaneous): still intact | implant integrity, three weeks postoperatively (Fischer 344 rats; subcutaneous): retained their integrity | tissue reaction to implant, one week postoperatively (Fischer 344 rats; subcutaneous, treated pericardium, H&E): lesser inflammatory reaction | concentration above which cells could not survive (NIH 3T3 cells): greater than 0.6 μg/mL | concentration at which cytotoxicity was observed (NIH 3T3 cells): ≤ 600 ng/mL

CC1=C(/C=C/C(C)=C/C=C/C(C)=C/C(=O)O)C(C)(C)CCC1 [tretinoin, All-trans-retinoic acid]
absorption [2]: less than 2%
